Where two headings read alike, the source gives them in different places.
Experiment: Mitochondrial toxicity (Glu/Gal) assay
Format: cell-based
Details: for Score: mitotoxicity score, Glu/Gal assay; for Δ IC50, glu/IC50, gal: ratio IC50 glu / IC50 gal
Text: The compounds of the invention/examples may have advantages associated with in vitro potency, kill kinetics (i.e. bactericidal effect) in vitro, PK properties, food effect, safety/toxicity (including liver toxicity, coagulation, 5-LO oxygenase), metabolic stability, Ames II negativity, MNT negativity, aqueous based solubility (and ability to formulate) and/or cardiovascular effect e.g. on animals (e.g. anesthetized guinea pig). Data that is generated/calculated may be obtained using standard methods/assays, for instance that are available in the literature or which may be performed by a supplier (e.g. Microsomal Stability Assay—Cyprotex, Mitochondrial toxicity (Glu/Gal) assay—Cyprotex, as well as literature CYP cocktail inhibition assays). GSH can be measured (reactive metabolites, glucuronidation) to observe if a dihydrodiol is observed by LCMS (fragmentation ions), which would correspond to a dihydroxylation on the core heterocycle.

[1] = galactose medium (Glu/Gal mitotoxicity assay), read-out: IC50, gal
[2] = glucose medium (Glu/Gal mitotoxicity assay), read-out: IC50, glu

| Compound | Score | Δ IC50, glu/IC50, gal | IC50 (read-out: IC50, gal) [µM] | IC50 (read-out: IC50, glu) [µM] | IC50 [1] [µM] | IC50 [2] [µM] |
| --- | --- | --- | --- | --- | --- | --- |
| CCc1nc2ccc(Cl)cn2c1C(=O)NCc1ccc(-c2nc3n(n2)CCN(S(=O)(=O)C(F)(F)F)C3)c(F)c1 [Compound 3] | [x]1 | 0.91 | 73.1 | 66.2 |  |  |
| O=C(NCc1ccc(-c2nc3n(n2)CCN(S(=O)(=O)C(F)(F)F)C3)c(F)c1)c1c(C(F)F)nc2ccc(Cl)cn12 [Compound 5] | [x]1 | 0.96 | 117 | 112 |  |  |
| CCc1nc2cc(C)c(Cl)cn2c1C(=O)NCc1ccc(-c2nc3n(n2)CCN(S(=O)(=O)C(F)(F)F)C3)c(F)c1 [Compound 9] | [x]1 | 1.15 | 19.9 | 22.9 |  |  |
| CCc1nc2c(Cl)c(OC)ccn2c1C(=O)NCc1ccc(-c2nc3n(n2)CCN(S(=O)(=O)C(F)(F)F)C3)c(F)c1 [Compound 11] |  | >2.93 | 68.2 | > 200 |  |  |
| CCc1nc2cc(OC)c(Cl)cn2c1C(=O)NCc1cnc(-c2nc3n(n2)CCN(S(=O)(=O)C(F)(F)F)C3)c(F)c1 [Compound 16] |  |  |  |  | > 200 | > 200 |
| CCc1nc2ncc(F)cn2c1C(=O)NCc1ccc(-c2nc3n(n2)CCN(S(=O)(=O)C(F)(F)F)C3)c(F)c1 [Compound 17] |  |  |  |  | > 200 | > 200 |
| CCc1nc2cc(C)c(Cl)cn2c1C(=O)NCc1cnc(-c2nc3n(n2)CCN(S(=O)(=O)C(F)(F)F)C3)c(F)c1 [Compound 20] | [x]1 | >1.3 | 154 | > 200 |  |  |
| CCc1nc2c(F)cc(Cl)cn2c1C(=O)NCc1ccc(-c2nc3n(n2)CCN(S(=O)(=O)C(F)(F)F)C3)cc1 [Compound 21] | [x]1 | 1.65 | 59.4 | 97.9 |  |  |
| CCc1nc2ccc(F)cn2c1C(=O)NCc1ccc(-c2nc3n(n2)CCN(S(=O)(=O)C(F)(F)F)C3)cc1 [Compound 22] | [x]1 | 1.51 | 62.6 | 94.7 |  |  |
| CCc1nc2cc(C)c(C)cn2c1C(=O)NCc1ccc(-c2nc3n(n2)CCN(S(=O)(=O)C(F)(F)F)C3)cc1 [Compound 23] |  |  |  |  | > 200 | > 200 |
| CCc1nc2cc(Cl)c(C)cn2c1C(=O)NCc1ccc(-c2nc3n(n2)CCN(S(=O)(=O)C(F)(F)F)C3)cc1 [Compound 25] |  | >2.26 | 22.1 | > 50 |  |  |
| CCc1nc2ncc(C(C)C)cn2c1C(=O)NCc1ccc(-c2nc3n(n2)CCN(S(=O)(=O)C(F)(F)F)C3)cc1 [Compound 26] |  |  |  |  | > 200 | > 200 |
| CCc1nc2ccc(C3CC3)cn2c1C(=O)NCc1ccc(-c2nc3n(n2)CCN(S(=O)(=O)C(F)(F)F)C3)cc1 [Compound 27] |  | 2.34 | 44.5 | 104 |  |  |
| CCc1nc2ncc(C3CC3)cn2c1C(=O)NCc1ccc(-c2nc3n(n2)CCN(S(=O)(=O)C(F)(F)F)C3)cc1 [Compound 28] |  |  | > 200 | > 200 |  |  |
| Cc1cnc2nc(C)c(C(=O)NCc3ccc(-c4nc5n(n4)CCN(S(=O)(=O)C(F)(F)F)C5)cc3)n2c1 [Compound 29] |  |  |  |  | > 200 | > 200 |
| Cc1ccc2nc(C3CC3)c(C(=O)NCc3ccc(-c4nc5n(n4)CCN(S(=O)(=O)C(F)(F)F)C5)cc3)n2c1 [Compound 30] | [x]1 | 1.35 | 71.1 | 95.7 |  |  |
| CCc1nc2n(c1C(=O)NCc1ccc(-c3nc4n(n3)CCN(S(=O)(=O)C(F)(F)F)C4)cc1)CCCC2 [Compound 31] |  |  |  |  | > 200 | > 200 |
| Cc1cn2c(C(=O)NCc3ccc(-c4nc5n(n4)CCN(S(=O)(=O)C(F)(F)F)C5)cc3)c(C)nc2s1 [Compound 32] | [x]3 | >12.72 | 15.7 | > 200 |  |  |
| CCc1nc2nc(C)c(C)cn2c1C(=O)NCc1ccc(-c2nc3n(n2)CCN(S(=O)(=O)C(F)(F)F)C3)cc1 [Compound 33] | [x]1 | <0.98 | > 200 | 196 |  |  |
| Cc1ccc2nc(C)c(C(=O)NCc3ccc(-c4nc5n(n4)CCN(S(=O)(=O)C(F)(F)F)C5)cc3)n2c1 [Compound 34] | [x]0 | >1.13 | 44.2 | > 50 |  |  |
| CCc1nc2ccc(C(C)C)cn2c1C(=O)NCc1ccc(-c2nc3n(n2)CCN(S(=O)(=O)C(F)(F)F)C3)cc1 [Compound 35] | [x]0 | >1.25 | 40.1 | > 50 |  |  |
| CCc1nc2sc(C)cn2c1C(=O)NCc1ccc(-c2nc3n(n2)CCN(S(=O)(=O)C(F)(F)F)C3)cc1 [Compound 36] | [x]0 | >1.26 | 79.5 | > 100 |  |  |
| CCc1nc2ncc(C)cn2c1C(=O)NCc1ccc(-c2nc3n(n2)CCNC3)cc1 [Compound 37] |  |  |  |  | > 200 | > 200 |
| Cc1nc2sc(Cl)cn2c1C(=O)NCc1ccc(-c2nc3n(n2)CCN(S(=O)(=O)C(F)(F)F)C3)cc1 [Compound 38] | [x]3 | >11.52 | 8.68 | > 100 |  |  |

| Compound | Score | Δ IC50, glu/IC50, gal | IC50 (read-out: IC50, gal) [µM] | IC50 (read-out: IC50, glu) [µM] | IC50 [1] [µM] | IC50 [2] [µM] |
| --- | --- | --- | --- | --- | --- | --- |
| CCc1nc2ncc(C)cn2c1C(=O)NCc1ccc(-c2nc3n(n2)CCN(C(C)=O)C3)cc1 [Compound 40] |  |  |  |  | > 200 | > 200 |
| CCc1nc2ncc(C)cn2c1C(=O)NCc1ccc(-c2nc3n(n2)CCN(S(=O)(=O)N(C)C)C3)cc1 [Compound 41] |  |  |  |  | > 200 | > 200 |
| CCc1nc2ncc(C)cn2c1C(=O)NCc1ccc(-c2nc3n(n2)CCN(C(=O)C(F)(F)F)C3)cc1 [Compound 43] |  |  |  |  | > 200 | > 200 |
| CCc1nc2nc3c(cn2c1C(=O)NCc1ccc(-c2nc4n(n2)CCN(S(=O)(=O)C(F)(F)F)C4)cc1)CCC3 [Compound 45] |  |  |  |  | > 100 | > 100 |
| CCc1nc2ccc(C)cn2c1C(=O)NCc1ccc(-c2nc3n(n2)CCN(C(C)=O)C3)cc1 [Compound 46] |  |  |  |  | > 200 | > 200 |
| CCc1nc2ccc(C)cn2c1C(=O)NCc1ccc(-c2nc3n(n2)CCN(S(=O)(=O)N2CCCC2)C3)cc1 [Compound 48] |  |  |  |  | > 200 | > 200 |
| CCc1nc2ncc(C)cn2c1C(=O)NCc1ccc(-c2nc3n(n2)CCN(C)C3)cc1 [Compound 50] |  |  |  |  | > 200 | > 200 |
| CCc1nc2ccc(C)cn2c1C(=O)NCc1ccc(-c2nc3n(n2)CCN(S(=O)(=O)N(C)C)C3)cc1 [Compound 51] |  |  |  |  | > 200 | > 200 |
| CCc1nc2ccc(C)cn2c1C(=O)NCc1ccc(-c2nc3n(n2)CCNC3)cc1 [Compound 52] |  |  |  |  | > 200 | > 200 |
| CCc1nc2ccc(C)cn2c1C(=O)NCc1ccc(-c2nc3n(n2)CCN(C(=O)C(F)(F)F)C3)cc1 [Compound 53] |  |  |  |  | > 200 | > 200 |
| CCc1nc2ncc(C)cn2c1C(=O)NCc1ccc(-c2nc3n(n2)CCN(CCOC)C3)cc1 [Compound 54] |  |  |  |  | > 200 | > 200 |
| CCc1nc2ccc(C)cn2c1C(=O)NCc1ccc(-c2nc3n(n2)CCN(CCOC)C3)cc1 [Compound 55] | [x]1 | >1.15 | 174 | > 200 |  |  |
| CCc1nc2ccc(C)cn2c1C(=O)NCc1ccc(-c2nc3n(n2)CCN(C)C3)cc1 [Compound 56] |  |  |  |  | > 200 | > 200 |
| CCc1nc2ncc(C)cn2c1C(=O)NCc1ccc(-c2nc3n(n2)CCN(S(=O)(=O)C(F)(F)F)C3)s1 [Compound 57] |  |  |  |  | > 200 | > 200 |
| CCc1nc2ncc(C)cn2c1C(=O)NCc1ccc(C2CN(c3nc4n(n3)CCN(S(=O)(=O)C(F)(F)F)C4)C2)cc1 [Compound 58] |  | >3.44 | 58.2 | > 200 |  |  |
| CCc1nc2ncc(C)cn2c1C(=O)NCc1ccc(C2CCN(c3nc4n(n3)CCN(S(=O)(=O)C(F)(F)F)C4)CC2)cc1 [Compound 59] | [x]3 | >11.38 | 17.6 | > 200 |  |  |
| CCc1nc2ncc(C)cn2c1C(=O)NCc1ccc(N2CCC(c3nc4n(n3)CCN(S(=O)(=O)C(F)(F)F)C4)CC2)cc1 [Compound 60] |  | >3.56 | 56.2 | > 200 |  |  |
| CCc1nc2ncc(C)cn2c1C(=O)NCc1ccc(-c2nc3n(n2)CCN(CCC#N)C3)cc1 [Compound 61] |  |  |  |  | > 200 | > 200 |
| CCc1nc2ccc(C)cn2c1C(=O)NCc1ccc(-c2nc3n(n2)CCN(CCC#N)C3)cc1 [Compound 62] |  |  |  |  | > 200 | > 200 |
| CCc1nc2ncc(C)cn2c1C(=O)NCc1ncc(-c2nc3n(n2)CCN(S(=O)(=O)C(F)(F)F)C3)s1 [Compound 64] |  |  |  |  | > 200 | > 200 |
| CCc1nc2n(c1C(=O)NCc1ccc(-c3nc4n(n3)CCN(S(=O)(=O)C(F)(F)F)C4)cc1)CCN(C)C2 [Compound 65] |  |  |  |  | > 200 | > 200 |
| CCc1nc2ncc(C)cn2c1C(=O)NCc1cccc(-c2nc3n(n2)CCN(S(=O)(=O)C(F)(F)F)C3)c1 [Compound 67] | [x]1 | >1.34 | 149 | > 200 |  |  |
| CCc1nc2ncc(C)cn2c1C(=O)NCc1ccc(C2CCN(c3nc4n(n3)CCN(S(=O)(=O)C(F)(F)F)C4)C2)cc1 (stereo not shown) [Compound 69] | [x]3 | 11.37 | 15.3 | 174 |  |  |

Source: patent US20240199651A1, “ANTIBACTERIAL COMPOUNDS” (JANSSEN SCIENCES IRELAND UNLIMITED COMPANY, priority 2021, published 2024)
